From patent US20050239873A1 (priority 1999, published 2005)

Key:
[1] = tested on: control mitochondria (TABX1A cells); experiment: Rhodamine 123 retention assay; design: species or system murine
Description: Rh-123 is a cationic lipid-soluble fluorescent dye that accumulates in mitochondria in proportion to the mitochondrial membrane potential. Mitochondria were isolated from TABX2S cells (over-expressing Bcl-xL) and from control cells, prepared as described in Example 2. The isolated mitochondria were loaded with Rh-123 by incubating with 10 μM Rh-123 for 30 minutes, washed and resuspended in buffer. […] Less than 40% of Rh-123 was retained in antimycin A-treated TABX2S mitochondria, compared with greater than 80% retained in control mitochondria.
In contrast, the control cells, which express BCl-xL at physiological levels, were resistant to BH3 peptide-induced membrane depolarization.

[2] = tested on: myeloid leukemia cell lines; experiment: Propidium iodide exclusion cytotoxicity; format: cell-based, human; conditions: 20 μg/ml, even after 48 h; seven or eight cell lines
Description: (§1) Cell survival was assayed by exclusion of propidium iodide (PI; 10 μg/ml) by unfixed cells. Annexin V-FITC (Pharmingen) or 3, 3′-dihexyloxacarbocyanine iodide (DiOC6(3); Molecular Probes) staining was analyzed together with PI to discriminate early apoptotic cells. Apoptotic cells were also measured as sub-G1 events among ethanol-fixed cells stained with 10 μg/ml PI. All cell samples were analyzed using a benchtop FACSCalibur™ (Becton Dickinson, San Jose, Calif.). Flow data were analyzed using MultiCycle AV software (Phoenix Flow Systems). For intracellular pH measurements, cell pellets were washed once and resuspended in 2 ml of HEPES-buffered medium (no phenol red and no serum). Carboxy-SNARF-1-AM (Molecular Probes, 1 mM stock in DMSO, stored at −20° C.) was added to a final concentration of 10 μM, and the cells were incubated for 30 min at 37° C. Following incubation with SNARF, cells were sedimented and the pellets were held on ice. Immediately before analysis, pellets were resuspended in […] (HBSS; experimental buffer) or high-[K+] buffer containing nigericin (calibration samples).

[3] = tested on: leukemia and lymphoma cell lines (DHL4, Daudi, Ramos, Molt4 and Jurkat); experiment: Propidium iodide exclusion cytotoxicity; format: cell-based, human; conditions: 5 to about 20 μg/ml
Description: as §1

[4] = tested on: NB4, an acute promyelocytic cell line; experiment: Propidium iodide exclusion cytotoxicity; format: cell-based, human
Description: as §1

[5] = tested on: TABX1A cells; experiment: Intracellular ATP, luciferase-luciferin assay; format: cell-based, murine; conditions: 2 μg/ml plus fructose 50 mM
Description: (§2) Fructose is a substrate that provides ATP production through the glycolytic pathway. After a 30-60 minute incubation, cells were harvested and intracellular ATP concentrations were determined by an ATP-dependent luciferase-luciferin assay (Sigma, St. Louis, Mo.). The ATP concentrations in DMSO-treated cells were taken as 100%. In parallel experiments, cell viability was determined after six hours.

[6] = tested on: TABX2S cells; experiment: Intracellular ATP, luciferase-luciferin assay; format: cell-based, murine; conditions: 2 μg/ml plus fructose 50 mM
Description: as §2

[7] = S9 metabolism; format: in vitro ADME, human; conditions: pH 7.4
Text: All chemicals and solvents used for sample preparation and HPLC analysis were analytical grade. Acetonitrile, methanol, and phosphoric acid were purchased from Fisher Scientific (Atlanta, Ga.). Hepatic S9 fractions from male CD2F1 mice, male Sprague Dawley rats, male dogs, and male humans were purchased from In Vitro Technologies (Boston, Mass.). The National Cancer Institute provided samples of the test compounds and male CD2F1 mice. Fischer 344 rats with implanted jugular cannulas were obtained from Charles River Laboratories (Cambridge, Mass.). All animal use and care procedures were approved by the Institutional Committee on Animal Use and Care at the University of Alabama at Birmingham and conformed to the guidelines found in Guide for the Care and Use of Laboratory Animals, National Academy Press, 1996.
To evaluate metabolism of the test compounds by S9 fractions from various species, reaction systems maintained at 37° C. contained 2-OMe-A3 (500 ng/ml) and S9 (1 mg protein/ml) in 100 mM Tris buffer (pH 7.4). At selected times, triplicate portions of the mixtures were removed and processed for analysis, as described above.

[8] = tested on: mitochondria with normal levels of Bcl-xL expression; experiment: JC-1 membrane potential of isolated mitochondria; design: species or system murine
Description: Isolated mitochondria were loaded with JC-1 prior to treatment, and mitochondrial labeling was determined using FACS. […] Antimycin A-treated mitochondria with high levels of Bcl-xL had lower levels of JC-1 staining than parallel samples treated with CCCP. Uncoupled mitochondria still retain a significant Donnan potential because of trapped anionic species and it is likely that antimycin-induced PT and/or swelling of mitochondria led to a further reduction of this residual potential.
As observed for the parent compound, antimycin A3, mitochondria with normal levels of BCl-xL expression were not affected by the 2-methoxy analog.

[9] = target: T1, Bcl-xL(ΔC) WT (Homo sapiens, UniProt Q07817); experiment: Pore-forming activity, calcein release from liposomes; format: biochemical
T1 construct: inferred from Ni-NTA purification and the pET22b(+) NdeI/XhoI cloning); made in house; host or cells: Escherichia coli BL21(DE3) carrying pUB520
T1 sequence (Q07817 1-211 limits assumed, stated change not applied): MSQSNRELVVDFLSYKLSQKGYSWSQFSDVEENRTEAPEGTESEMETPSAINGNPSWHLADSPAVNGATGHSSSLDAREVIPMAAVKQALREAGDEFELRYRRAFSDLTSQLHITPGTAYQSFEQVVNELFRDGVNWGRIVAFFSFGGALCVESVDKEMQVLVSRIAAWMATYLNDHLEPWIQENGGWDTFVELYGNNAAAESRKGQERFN
How it was run: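 Bcl-xL(ΔC) protein (500 nM) was added to calcein-loaded 60:40 DOPC/DOPG LUVs (60 μM lipid) in 100 mM KCl, 10 mM KOAc, pH 5.0. Fluorescence was read at 490/520 nm, with kinetics at 37 °C and dose responses at room temperature. BH3 peptides were preincubated 5 min with protein; release was expressed as % of Triton X-100 lysis.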

antimycin A
Rh123 dye leakage ([1]; BH3 peptide 3.5 μM): minimally affected
Rh-123 retained ([1]; five minutes after adding): greater than 80%
sensitivity (PI exclusion) [2]: resistant
sensitivity (PI exclusion) [3]: sensitive
sensitivity (PI exclusion) [4]: modestly antimycin-sensitive
ATP level, of control [5]: approximately 60%
ATP level, of control [6]: approximately 60%

CCCC[C@H]1C(=O)OC(C)[C@H](NC(=O)c2cccc(NC=O)c2OC)C(=O)O[C@@H](C)C1OC(=O)CC(C)C (some centres unmarked) [2-OMeA3, Antimycin A3 methyl ether]
half-life ([7]; 500 ng/ml, 37° C.): only slightly less than that for the control
half-life at 2000 ng/ml ([7]; male, human, hepatic S9 fraction, 2000 ng/ml): ~10 min
mitochondrial depolarization (JC-1) [8]: not affected

CCCCCC[C@H]1C(=O)O[C@H](C)[C@H](NC(=O)c2cccc(NC=O)c2OC)C(=O)O[C@@H](C)[C@@H]1OC(=O)CC(C)C [2-OMeA1, 2-methoxy antimycin A1]
effect on Bcl-xL pore-forming activity [9]: inhibited
